Laboratory results published in publication PMC6271006, “Monoamine Oxidase Inhibitory Constituents of Propolis: Kinetics and Mechanism of Inhibition of Recombinant Human MAO-A and MAO-B” (Molecules, 2014).
Where two headings read alike, the source gives them in different places.

Tests used:
[1] = test system: MAO-A; set-up: method as in not given; conditions: mouse brain crude mitochondrial preparation, iso-enzyme specific substrates; earlier study, ref not given; cited from earlier work
[2] = molecular target: T1, recombinant human MAO-B (Homo sapiens, UniProt P27338); test: MAO-B inhibition, kynuramine deamination assay (IC50); format: biochemical; conditions: pure compounds; 50 μM kynuramine; mean ± S.D. of triplicate; read-out: Monoamine Oxidase-B (IC50)
T1 construct: purchased BD Biosciences (Bedford, MA, USA)
T1 sequence (P27338 1-520): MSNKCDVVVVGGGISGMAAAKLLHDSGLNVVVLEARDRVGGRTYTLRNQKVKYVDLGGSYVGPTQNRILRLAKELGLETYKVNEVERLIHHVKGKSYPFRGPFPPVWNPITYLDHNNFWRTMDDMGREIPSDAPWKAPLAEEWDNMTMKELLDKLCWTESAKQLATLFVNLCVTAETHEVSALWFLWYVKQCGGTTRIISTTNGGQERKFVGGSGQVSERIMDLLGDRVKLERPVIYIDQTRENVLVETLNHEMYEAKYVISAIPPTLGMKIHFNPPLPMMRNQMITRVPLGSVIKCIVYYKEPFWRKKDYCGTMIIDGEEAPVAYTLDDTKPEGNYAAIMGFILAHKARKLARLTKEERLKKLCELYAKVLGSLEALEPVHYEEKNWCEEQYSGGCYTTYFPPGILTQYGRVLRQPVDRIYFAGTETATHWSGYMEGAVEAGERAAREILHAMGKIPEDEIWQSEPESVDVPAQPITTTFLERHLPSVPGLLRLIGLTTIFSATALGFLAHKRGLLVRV
Protocol: (§1) To investigate the effect of the selected constituents on MAO-A and MAO-B, the kynuramine deamination assay was adapted for 96-well plates as described earlier. […] For MAO-A, the substrate concentration of 80 μM kynuramine was chosen because the apparent KM value for substrate binding reported previously was approximately 40 μM [48]. […] Similarly, for MAO-B, substrate concentration of 50 μM kynuramine was chosen. The assay was performed with the addition of inhibitor. Inhibition was calculated as percent of product formation compared to the corresponding control (enzyme-substrate reaction) without the inhibitors. The reactions were carried out in 0.1 M potassium phosphate buffer at pH 7.4. Incubations mixtures contained 5 μg/mL of MAO-A (50 μL in buffer) and 10 μg/mL of MAO-B (50 μL in buffer). The inhibitor was dissolved in DMSO or in buffer (if not dissolved in DMSO). The total reaction volume was 200 μL yielding a final DMSO concentration of 1.0% in the reaction mixture. The reaction mixtures were pre-incubated for 10 min at 37 °C followed by the addition of MAO-A/MAO-B to initiate the reactions. Reactions were incubated for 20 min at 37 °C and were stopped immediately by the addition of 75 μL of 2N NaOH. The formation of 4-hydroxyquinoline was determined fluorometrically by SpectraMax M5 fluorescence plate reader (Molecular Devices, Sunnyvale, CA, USA) with an excitation and emission wavelength of 320 nm and 380 nm, respectively, using the Soft Max Pro program. Appropriate controls with the test compounds, fractions and extracts, where the enzyme or the substrate was added after stopping the reaction were setup simultaneously to check interference with the fluorescence measurements.
(§2) IC50 values for inhibition of MAO-A and B by the selected constituents were determined using fixed concentration of substrate and varying concentration of the inhibitor.

[3] = test system: total MAO (A & B); set-up: method as in not given; conditions: mouse brain crude mitochondrial preparation; earlier study, ref not given; read-out: IC50 for inhibition of total MAO (A & B); cited from earlier work
[4] = molecular target: T1, recombinant human MAO-B; test: Enzyme kinetics / inhibition mechanism, MAO-B (Ki, Lineweaver-Burk); format: biochemical
Description: (§3) Based on dose-response inhibition, two concentrations of the inhibitors were selected, one below and another above IC50 value for the inhibition. For each experiment, three sets of assays were done at varying concentrations of the substrate, one control without inhibitors and with two concentrations of the inhibitor.
(§4) Controls without inhibitor were also run simultaneously.

[5] = molecular target: T2, recombinant human MAO-A (Homo sapiens, UniProt P21397); test: Reversibility of binding by enzyme-inhibitor complex dissociation dialysis, MAO-A; format: biochemical; conditions: for MAO-A activity recovered after dialysis: overnight dialysis; for Nature of binding with MAO-A: dialysis dissociation
T2 construct: purchased BD Biosciences (Bedford, MA, USA)
T2 sequence (P21397 1-527): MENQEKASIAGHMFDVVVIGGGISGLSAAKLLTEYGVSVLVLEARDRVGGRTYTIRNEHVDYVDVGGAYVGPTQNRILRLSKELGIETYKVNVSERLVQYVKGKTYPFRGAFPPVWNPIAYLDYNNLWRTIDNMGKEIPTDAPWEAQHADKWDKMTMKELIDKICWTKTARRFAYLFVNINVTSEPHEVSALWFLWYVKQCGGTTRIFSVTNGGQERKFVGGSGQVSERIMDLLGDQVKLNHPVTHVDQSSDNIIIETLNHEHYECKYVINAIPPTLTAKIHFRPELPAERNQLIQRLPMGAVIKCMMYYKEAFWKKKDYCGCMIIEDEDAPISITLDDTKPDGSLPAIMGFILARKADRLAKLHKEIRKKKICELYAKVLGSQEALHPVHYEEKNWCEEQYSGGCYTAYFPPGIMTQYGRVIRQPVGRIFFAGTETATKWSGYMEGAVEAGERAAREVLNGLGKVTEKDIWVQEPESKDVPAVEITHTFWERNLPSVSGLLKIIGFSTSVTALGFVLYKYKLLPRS
Protocol: (§5) The characteristic binding of these inhibitors was also investigated by the enzyme-inhibitor complex dissociation by dialysis. High concentrations of the inhibitors were allowed to interact with the enzyme (MAO-A or B) for 20 min and the resulting enzyme-inhibitor complex mixtures were dialyzed overnight against buffer solutions. The catalytic activities of the enzymes were analyzed before and after the dialysis. The recombinant human MAO-A lost about 30% of the enzyme activity during overnight dialysis. […] After the dialysis about 70% and 80% activity of the enzyme was recovered from enzyme-galangin and enzyme-apigenin incubation mixtures. This observation indicated reversal of the enzyme activity due to formation of dissociable enzyme-inhibitor complex. […] The recombinant MAO-B lost about 30% of the enzyme activity during overnight dialysis.
(§6) Most of the inhibitors produce inhibition of the target enzyme through formation of an enzyme-inhibitor complex. Formation of the enzyme-inhibitor complex may be accelerated in presence of high concentration of the inhibitor. […] After 20 min incubation at 37 °C, the reaction was stopped by chilling the tubes on the ice bath. All the samples were dialyzed against potassium phosphate buffer (25 mM; pH 7.4) at 4 °C for 14 h (three buffer changes). Control enzyme (without inhibitor) was also run through the same procedure and activity of the enzyme was determined before and after the dialysis. Recovery of the catalytic activity enzyme after extensive dialysis of the enzyme-inhibitor mix provided the information about reversibility/irreversibility of binding of the inhibitor with the enzyme.

[6] = molecular target: T1, recombinant human MAO-B; test: Time-dependent enzyme inhibition, MAO-B; format: biochemical; conditions: pre-incubation 0-15 min; galangin 14.0 μM, apigenin 4.0 μM
Protocol: (§7) The controls without inhibitors were also run simultaneously. Activities of the enzymes were determined as described above and percentage of enzyme activity remaining was plotted against the preincubation time to determine time-dependent inhibition.
(§8) The controls without inhibitors were also run simultaneously. Activities of the enzymes were determined as described above and percentage of enzyme activity remaining was plotted against the preincubation time to determine time-dependent enzyme-inhibition.

[7] = molecular target: T2, recombinant human MAO-A; test: Time-dependent enzyme inhibition, MAO-A; format: biochemical; conditions: pre-incubation 0-15 min; galangin 0.25 μM, apigenin 1.2 μM
Protocol: as §7, §8

[8] = molecular target: T1, recombinant human MAO-B; test: Reversibility of binding by enzyme-inhibitor complex dissociation dialysis, MAO-B; format: biochemical; conditions: for MAO-B activity recovery after dialysis: overnight dialysis
Protocol: as §5, §6

[9] = molecular target: T2, recombinant human MAO-A; test: MAO-A inhibition, kynuramine deamination assay (IC50); format: biochemical; conditions: for IC50: pure compounds, 80 μM kynuramine, mean ± S.D. of triplicate, read-out: Monoamine Oxidase-A (IC50)
Protocol: as §1, §2

[10] = molecular target: T2, recombinant human MAO-A; test: Enzyme kinetics / inhibition mechanism, MAO-A (Ki, Lineweaver-Burk); format: biochemical; conditions: for Ki: kynuramine 1.90-500 μM, SigmaPlot enzyme module, mean ± S.D. of triplicate experiments, read-out: Monoamine Oxidase-A Ki
Description: as §3, §4

## O=c1cc(-c2ccc(O)cc2)oc2cc(O)cc(O)c12 [Apigenin, apigenin]
[1]
  Potency of MAO-A inhibition relative to MAO-B: about 7.5 fold
[2]
  IC50: 1120 ± 270 nM
[3]
  IC50: 1000 nM
[4]
  Monoamine Oxidase-B Type of Inhibition: Competitive/Reversible
[4]; kynuramine 1.90-500 μM, SigmaPlot enzyme module, mean ± S.D. of triplicate experiments, read-out: Monoamine Oxidase-B Ki
  Ki: 238 ± 24 nM
[4]; listed as apigenin
  Monoamine Oxidase-B Type of Inhibition: competitive
[5]; 20.0 μM inhibitor, 20 min incubation, read-out: Inhibition of catalytic activity of MAO-A before dialysis
  inhibition at 20 µM: > 88%
[5]; 20.0 μM inhibitor
  MAO-A activity recovered after dialysis: ~80%
[5]
  Nature of binding with MAO-A: reversible
[6]
  Time-dependence of binding/inhibition of MAO-B: not dependent on pre-incubation time
[7]
  Time-dependence of binding/inhibition of MAO-A: not dependent on pre-incubation time
[8]; 25.0 μM inhibitor, 20 min incubation, read-out: Inhibition of catalytic activity of MAO-B before dialysis
  inhibition at 25 µM: ~90%
[8]; 25.0 μM inhibitor
  MAO-B activity recovery after dialysis: almost fully recovered
[9]
  IC50: 640 ± 110 nM
[10]
  Monoamine Oxidase-A Type of Inhibition: Competitive/Reversible
  Ki: 125 ± 14 nM
[10]; listed as apigenin
  Monoamine Oxidase-A Type of Inhibition: competitive

## O=c1c(O)c(-c2ccc(O)c(O)c2)oc2cc(O)ccc12 [Fisetin hydrate, fisetin]
[2]
  IC50: > 100000 nM
[9]; MAO-A over MAO-B
  Selectivity for MAO-A vs. MAO-B: > 47 fold
[9]
  IC50: 2100 ± 90 nM

## O=c1c(O)c(-c2ccccc2)oc2cc(O)cc(O)c12 [Galangin, galangin]
[4]
  Monoamine Oxidase-B Type of Inhibition: Competitive/Reversible
[4]; listed as galangin
  Monoamine Oxidase-B Type of Inhibition: competitive
[5]; 10.0 μM inhibitor, 20 min incubation, read-out: Inhibition of catalytic activity of MAO-A before dialysis
  inhibition at 10 µM: > 97%
[5]; 10.0 μM inhibitor
  MAO-A activity recovered after dialysis: about 70%
[5]
  Nature of binding with MAO-A: reversible
[6]
  Time-dependence of binding/inhibition of MAO-B: not dependent on pre-incubation time
[7]
  Time-dependence of binding/inhibition of MAO-A: not dependent on pre-incubation time
[8]; 50.0 μM inhibitor, 20 min incubation
  Inhibition of MAO-B enzyme activity before dialysis: ~58.3
[8]; 50.0 μM inhibitor
  MAO-B activity recovery after dialysis: almost completely recovered
[9]
  IC50: 130 ± 10 nM
[10]
  Monoamine Oxidase-A Type of Inhibition: Competitive/Reversible
  Ki: 29 ± 4 nM
[10]; listed as galangin
  Monoamine Oxidase-A Type of Inhibition: competitive

## COc1ccc2c(c1)[nH]c1c(C)nccc12 [Harmine, reference compound]
[2]
  IC50: 27500 ± 2670 nM
[10]
  Monoamine Oxidase-A Type of Inhibition: Competitive/Reversible

## O=c1c(O)c(-c2ccc(O)cc2O)oc2cc(O)cc(O)c12 [Morin hydrate, morin]
[2]
  IC50: 49700 ± 560 nM
[9]; MAO-A over MAO-B
  Selectivity for MAO-A vs. MAO-B: 9 fold
[9]
  IC50: 5880 ± 150 nM

## O=c1c(O)c(-c2ccc(O)c(O)c2)oc2cc(O)cc(O)c12 [Quercetin, quercetin]
[2]
  IC50: 38700 ± 1200 nM
[9]
  Selectivity for MAO-A vs. MAO-B: 15 fold
  IC50: 2440 ± 120 nM

## O=C1c2c(O)cc(O)cc2OC(c2ccc(O)c(O)c2)C1O (stereo not shown) [Toxifolin, taxifolin]
[2]
  IC50: 53800 ± 3910 nM
[9]
  IC50: 65100 ± 1960 nM
